Data reported in patent US20240092774A1, “HETEROAROMATIC COMPOUNDS AND USES THEREOF” (HUTCHISON MEDIPHARMA LIMITED, priority 2020, published 2024).
Like-named read-outs stand apart in the source and are kept apart here.

What was measured:
[1] = molecular target: CSF1R phosphorylation in THP-1 cells (Homo sapiens (Human), UniProt P07333); experiment: Detection of CSF1R phosphorylation activity at cell level (p-CSF1R ELISA, M-CSF stimulated THP-1 cells); assay type: cell-based
Method: THP-1 (ATCC), human acute monocytic leukemia cells.
3. Treatment of cells and preparation of lysis buffer
5 μL. of the diluted compound was added to the 50 μL cell culture system, the culture was cultured in a 5% CO2, 37° C. cell incubator for 60 min, 300 ng/mL of M-CSF was added to the cells, and the mixture was stimulated in the 37° C. cell incubator for 1 min, added 50 μL of cell lysis buffer, and stored in a refrigerator at −80° C.
100 μL/well of the p-CSF1R capture antibody diluted to 0.8 μg/mL with PBS was added to the ELISA plate, and the plate was coated on a shaker at room temperature overnight. The culture was washed with PBST, and then added blocking solution and incubated at room temperature for 2 h. The culture was washed with PBST, added 90 μL of cell lysis buffer, and incubated on a shaker at 25° C. for 2 h. The plate was washed with PBST three times, added 100 μL of anti-p-tyrosine-HRP detection antibody diluted with 0.1% PBS-BSA diluent, and incubated on a shaker at 25° C. for 2 h. The plate was washed with PBST washing liquid, added 100 μL of chromogenic substrate and incubated at room temperature for 10-20 min. The reaction was stopped by adding 50 μL of 2N H2SO4. The optical density signal (450/570 nm) of each well was detected in Labsystems Multiskan K3 or Envision.
wherein • Drug-treated well read-out: indicating the optical density signal of a cell well with the test compound treatment. • Background read-out: indicating the optical density signal of a well without cells but with cell lysis buffer. • Cell well read-out: indicating the optical density signal of a cell well not treated with the compound.
6. Calculation of IC50: obtained by using XL-Fit 5.3 software, […]

[2] = molecular target: Recombinant human CSF1R kinase (Homo sapiens (Human), UniProt P07333); experiment: Measurement of CSF1R kinase activity at molecular level (Z-LYTE); assay type: biochemical; conditions: Z-LYTE Tyr 1 peptide
Method: Invitrogen, PV3227; • Development reagent B: Invitrogen, PV3295; • Development buffer: Invitrogen. P3127; • Stopping solution: Invitrogen, P3094; • Recombinant human CSF1R kinase: Invitrogen, P[…]; • 384 well plate, black: Corning. 3575; • Envision: Perkin Elmer. 2. […] The test compound was diluted in gradient to 4-fold the reaction concentration and the concentration of DMSO was kept at 8%. […] The mixture was mixed gently with a pipette. • 4) A phosphorylated peptide substrate solution (PP solution): 0.4 μL of Z-LYTETM Tyr1 phosphorylated peptide substrate was added to 99.6 μl of 1.33× kinase buffer. • 5) ATP solution: 10 mM of ATP was diluted to 760 μM with 1.33× kinase buffer to prepare ATP solution. • 6) Development solution: Development reagent B was diluted with Development buffer at a ratio of 1:200. 3. […] 2.5 μL of 4× test compound was added to each reaction well of the 384 plate, and the corresponding volume of 8% DMSO was added to the control well. The plate was placed on ice. […] After adding the reaction components, the 384-well plate was sealed and incubated at 25-30° C. for 1 h in dark. 2) Development Reaction 5 μL of Development solution was added to each well, sealed and incubated at 25-30° C. for another 1 h in dark. 3) Reaction Stopping and Plate Reading 5 μL of stopping solution was added to each well. The Coumarin value (excitation at 400 nm, emission at 445 nm) and Fluorescein value (excitation at 400 nm, emission at 520 nm) were measured, respectively. 4. […] Coumarin emission read-out (445 nm)/Fluorescein emission read-out (520 nm); • C3 445 nm: 100% phosphorylated Coumarin emission read-out; • C3 520 nm: 100% phosphorylated Fluorescein emission read-out; • C1 445 nm: 0% phosphorylated Coumarin emission read-out; • C1 520 nm: 0% phosphorylated Fluorescein emission read-out. […] 5. IC50 values: calculated by using software XL-FitTM (version 5.3) supplied by ID Business Solutions (Guildford, UK), which is an additional software to Microsoft Excel.

[3] = THP-1 cells, M-CSF stimulation, p-CSF1R ELISA, read-out: IC50

Chain of Recombinant human CSF1R kinase (P07333 20-972): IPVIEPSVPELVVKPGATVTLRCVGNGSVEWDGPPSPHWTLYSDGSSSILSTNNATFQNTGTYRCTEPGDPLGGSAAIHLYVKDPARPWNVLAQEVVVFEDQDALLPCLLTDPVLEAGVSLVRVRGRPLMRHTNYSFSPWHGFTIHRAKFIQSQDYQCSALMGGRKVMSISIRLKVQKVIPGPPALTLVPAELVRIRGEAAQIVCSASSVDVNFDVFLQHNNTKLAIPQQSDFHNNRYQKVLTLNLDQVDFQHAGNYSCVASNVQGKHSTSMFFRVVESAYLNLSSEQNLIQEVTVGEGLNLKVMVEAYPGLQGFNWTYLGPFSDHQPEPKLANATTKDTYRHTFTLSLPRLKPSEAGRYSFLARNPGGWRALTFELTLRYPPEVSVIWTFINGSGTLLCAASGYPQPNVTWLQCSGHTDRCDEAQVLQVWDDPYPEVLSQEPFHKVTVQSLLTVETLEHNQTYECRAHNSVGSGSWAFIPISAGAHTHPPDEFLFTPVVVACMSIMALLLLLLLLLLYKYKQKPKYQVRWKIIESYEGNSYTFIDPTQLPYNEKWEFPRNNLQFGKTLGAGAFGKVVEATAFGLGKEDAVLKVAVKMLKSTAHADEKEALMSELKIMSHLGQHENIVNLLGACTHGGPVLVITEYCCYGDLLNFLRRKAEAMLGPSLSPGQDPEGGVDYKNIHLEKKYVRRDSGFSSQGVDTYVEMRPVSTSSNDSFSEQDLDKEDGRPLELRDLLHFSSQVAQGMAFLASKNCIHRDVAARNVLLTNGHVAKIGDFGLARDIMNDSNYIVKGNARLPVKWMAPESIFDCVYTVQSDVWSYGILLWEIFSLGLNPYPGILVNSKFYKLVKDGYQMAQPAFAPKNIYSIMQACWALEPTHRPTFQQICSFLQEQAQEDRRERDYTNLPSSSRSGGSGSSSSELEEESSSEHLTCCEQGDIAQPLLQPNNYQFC
Chain of CSF1R phosphorylation in THP-1 cells (P07333 20-972): as above

SMILES	IC50 [2] [nM]	IC50 [1, 3] [µM]	IC50 ([1]; IC50 (μM)) [µM]
COc1ccc(COc2ccc(Oc3ccc4ncc(C)c(=O)n4c3)cn2)cc1 [Compound 1, 7-((6-((4-methoxybenzyl)oxy)pyridin-3-yl)oxy)-3-methyl-4H-pyrido[1,2-a]pyrimidin-4-one]	10		0.052
COc1cc(Oc2ccc3ncc(C)c(=O)n3c2)cnc1OCc1ccc(C(C)C)cc1 [Compound 8]	67	0.029	
COc1cc(Oc2ccc3ncc(C)c(=O)n3c2)cnc1OCc1cccc(C(C)(C)C#N)c1 [Compound 10]	44	0.08	
COc1cc(Oc2ccnc(-c3cnn(C)c3)c2)cnc1OCc1ccc(C2CC2)cc1 [Compound 12]	13	0.005	
COc1cc(Oc2ccc3ncn(C)c(=O)c3c2)cnc1OCc1ccc(C2CC2)cc1 [Compound 16]	22	0.005	
COc1cc(Oc2ccc3c(c2)C2=NCCN2C=N3)cnc1OCc1ccc(C2CC2)cc1 [Compound 17]	15	0.018	
COc1cc(Oc2ccc3ncccc3c2)cnc1OCc1ccc(C2CC2)cc1 [Compound 18]	33	0.005	
COc1cc(Oc2ccc3ncc(C)c(=O)n3c2)cnc1OCc1ccc(-n2cccn2)cc1 [Compound 23]	5	0.129	
COc1cc(Oc2ccc3ncc(N)c(=O)n3c2)cnc1OCc1ccc(-n2cccn2)cc1 [Compound 24]	3	0.034	
COc1cc(Oc2ccc3ncc(C)c(=O)n3c2)cnc1OCc1cccc(Cl)c1 [Compound 26]	6	0.108	
COc1cc(Oc2ccc3ncc(C)c(=O)n3c2)cnc1OCc1ccc(C(C)(C)O)cc1 [Compound 27]	16	0.045	
COc1ccc(COc2ncc(Oc3ccc4ncc(C)c(=O)n4c3)cn2)cc1 [Compound 29]	6	0.023	
COc1ccc(COc2ncc(Oc3ccc4ncc(N5CCOCC5)c(=O)n4c3)cc2OC)cc1 [Compound 31]	6	0.01	
COc1ccc(COc2ncc(Oc3ccc4ncc(N)c(=O)n4c3)cc2OC)cc1 [Compound 32]	3	0.004	
COc1cc(Oc2ccc3ncc(N)c(=O)n3c2)cnc1OCc1ccc(C)cc1 [Compound 35]	6	0.012	
COc1ccc(CCOc2ncc(Oc3ccc4ncc(C)c(=O)n4c3)cc2OC)cc1 [Compound 37]	33	0.14	
COc1ccccc1CCOc1ncc(Oc2ccc3ncc(C)c(=O)n3c2)cc1OC [Compound 38]	24	0.381	
COc1cccc(CCOc2ncc(Oc3ccc4ncc(C)c(=O)n4c3)cc2OC)c1 [Compound 39]	15	0.3	
COc1cc(Oc2ccc3ncc(C)c(=O)n3c2)cnc1OCCc1ccccc1 [Compound 40]	33	0.19	
Cc1cnc2ccc(Oc3cnc(OCc4ccc(Cl)cc4)nc3)cn2c1=O [Compound 41]	23	0.551	
COc1cc(Oc2ccc3ncc(C)c(=O)n3c2)cnc1OCc1ccccc1 [Compound 43]	4	0.054	
Cc1cnc2ccc(Oc3cnc4c(c3)OCC(c3ccc(C5CC5)cc3)O4)cn2c1=O (stereo not drawn) [Compound 45, 7-((3-(4-cyclopropylphenyl)-2,3-dihydro-[1,4]dioxino[2,3-b]pyrin-7-yl)oxy)-3-methyl-4H-pyrido[1,2-a]pyrimidin-4-one]	36	0.061	
COc1cc(Cc2ccnc(-c3cnn(C)c3)c2)cnc1OCc1ccc(C2CC2)cc1 [Compound 46, 2-((4-cyclopropylbenzyl)oxy)-3-methoxy-5-((2-(1-methyl-1H-pyrazol-4-yl)pyridin-4-yl)methyl)pyridine]	28	0.005	
COc1ccc(COc2ncc(Cc3ccc4ncc(C)c(=O)n4c3)cc2OC)cc1 [Compound 47, 7-((5-methoxy-6-((4-methoxybenzyl)oxy)pyridin-3-yl)methyl)-3-methyl-4H-pyrido[1,2-a]pyrimidin-4-one]	13	0.012	

More lines, main results first:

IC50 [2] [nM]	IC50 [1, 3] [µM]	SMILES	IC50 ([1]; IC50 (μM)) [µM]
7	0.004	COc1ccc(COc2ncc(Oc3ccc4ncc(C)c(=O)n4c3)cc2OC)cc1 [Compound 6]	
63	0.006	COc1cc(Oc2ccc3ncc(C)c(=O)n3c2)cnc1OCc1ccc(C2CC2)c(F)c1 [Compound 9]	
61	0.164	COc1cc(Oc2ccc3ncc(C)c(=O)n3c2)cnc1OCc1ccc(C2CC2)cc1F [Compound 11]	
8	0.017	COc1cc(Oc2ccc3ncc(C)c(=O)n3c2)cnc1OCc1ccc(C2CC2F)cc1 (stereo not drawn) [Compound 13]	
28	0.048	Cc1cnc2ccc(Oc3cnc(OCc4ccc(C5CC5)cc4)c(OCF)c3)cn2c1=O [Compound 14]	
10	0.015	COc1cc(Oc2ccc3ncc(C)c(=O)n3c2)cnc1OCc1ccc(C2CC2(F)F)cc1 (stereo not drawn) [Compound 15]	
24	0.06	COc1ccc(COc2ncc(Oc3ccc4ncc(C)c(=O)n4c3)cc2F)cc1 [Compound 20]	
13	0.008	COc1cc(Oc2ccc3ncc(C)c(=O)n3c2)cnc1OCc1ccc(C2CC2)cc1 [Compound 21]	
12	0.009	COc1cc(Oc2ccc3ncc(N)c(=O)n3c2)cnc1OCc1ccc(C2CC2)cc1 [Compound 22]	
8	0.004	COc1cc(Oc2ccc3nccc(=O)n3c2)cnc1OCc1ccc(C2CC2)cc1 [Compound 25]	
21	0.056	COc1cc(Oc2ccc3ncc(C4CC4)c(=O)n3c2)cnc1OCc1ccc(C)cc1 [Compound 36]	
13	0.078	Cc1cnc2ccc(Oc3cnc(OCc4ccc(C5CC5)cc4)nc3)cn2c1=O [Compound 42]	
4	0.019	COc1cc(Oc2ccc3ncc(C)c(=O)n3c2)cnc1OCc1ccc(C)cc1 [Compound 44]	
19	0.034	OCCn1cc(-c2cc(Oc3cnc4c(c3)OCC(c3ccc(C5CC5)cc3)O4)ccn2)cn1 (stereo not drawn) [Compound 52, 2-(4-(4-((3-(4-cyclopropylphenyl)-2,3-dihydro-[1,4]dioxino[2,3-b]pyridin-7-yl)oxy)pyridin-2-yl)-1H-pyrazol-1-yl)ethan-1-ol]	
15	0.016	Cc1cnc2ccc(Oc3cnc4c(c3)OC[C@@H](c3ccc(C5CC5)cc3)O4)cn2c1=O [Compound 57]	
12	0.026	Cc1cnc2ccc(Oc3cnc4c(c3)OC[C@H](c3ccc(C5CC5)cc3)O4)cn2c1=O [Compound 58]	
5	0.05	O=c1ccnc2ccc(Oc3cnc4c(c3)OC[C@@H](c3ccc(C5CC5)nc3)O4)cn12 [Compound 59]	
6	0.052	O=c1ccnc2ccc(Oc3cnc4c(c3)OC[C@H](c3ccc(C5CC5)nc3)O4)cn12 [Compound 60]	
3	0.029	Cc1cnc2ccc(Oc3cnc4c(c3)OC[C@@H](c3ccc(C5CC5)nc3)O4)cn2c1=O [Compound 61]	
4	0.047	Cc1cnc2ccc(Oc3cnc4c(c3)OC[C@H](c3ccc(C5CC5)nc3)O4)cn2c1=O [Compound 62]	
5	0.018	COc1ccc([C@@H]2COc3cc(Oc4ccc5nccc(=O)n5c4)cnc3O2)cc1 [Compound 63]	
